Measurements from ChEMBL document CHEMBL5678818, “Discovery of potent SOS1 inhibitors that block RAS activation via disruption of the RAS-SOS1 interaction” (Proc Natl Acad Sci U S A, 2019).

Tests used:
[1] = target: High affinity nerve growth factor receptor (Homo sapiens) (UniProt P04629); test: Inhibition of TRKA (unknown origin) assessed as residual activity at 1000 nM by KINOMEscan analysis relative to control
[2] = target: Tyrosine-protein kinase Fer (Homo sapiens) (UniProt P16591); test: Inhibition of FER (unknown origin) assessed as residual activity at 1000 nM by KINOMEscan analysis relative to control
Tyrosine-protein kinase Fer (Homo sapiens), sequence (P16591 whole entry, looked up): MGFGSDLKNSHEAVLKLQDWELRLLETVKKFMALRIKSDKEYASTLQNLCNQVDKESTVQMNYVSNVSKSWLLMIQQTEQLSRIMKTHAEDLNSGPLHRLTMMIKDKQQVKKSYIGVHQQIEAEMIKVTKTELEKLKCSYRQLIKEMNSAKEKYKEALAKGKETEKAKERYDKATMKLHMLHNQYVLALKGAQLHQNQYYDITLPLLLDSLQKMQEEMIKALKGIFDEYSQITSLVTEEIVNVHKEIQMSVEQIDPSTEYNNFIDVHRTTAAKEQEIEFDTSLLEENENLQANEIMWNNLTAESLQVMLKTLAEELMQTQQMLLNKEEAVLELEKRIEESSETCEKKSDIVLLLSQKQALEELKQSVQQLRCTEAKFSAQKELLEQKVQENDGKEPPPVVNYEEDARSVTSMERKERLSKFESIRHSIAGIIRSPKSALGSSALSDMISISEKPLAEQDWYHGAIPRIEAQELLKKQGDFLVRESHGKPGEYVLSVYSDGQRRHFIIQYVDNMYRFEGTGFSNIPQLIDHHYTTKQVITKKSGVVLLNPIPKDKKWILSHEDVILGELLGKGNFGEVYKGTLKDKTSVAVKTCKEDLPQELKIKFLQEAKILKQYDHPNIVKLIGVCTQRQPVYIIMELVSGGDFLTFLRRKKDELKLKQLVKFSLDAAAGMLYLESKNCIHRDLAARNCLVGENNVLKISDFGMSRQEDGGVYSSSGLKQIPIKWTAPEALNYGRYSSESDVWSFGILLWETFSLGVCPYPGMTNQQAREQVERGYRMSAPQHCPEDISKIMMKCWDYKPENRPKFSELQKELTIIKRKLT

[3] = target: T1, Mitogen-activated protein kinase 13 (Homo sapiens) (UniProt O15264); test: Inhibition of p38-delta (unknown origin) assessed as residual activity at 1000 nM by KINOMEscan analysis relative to control
T1 sequence (whole entry): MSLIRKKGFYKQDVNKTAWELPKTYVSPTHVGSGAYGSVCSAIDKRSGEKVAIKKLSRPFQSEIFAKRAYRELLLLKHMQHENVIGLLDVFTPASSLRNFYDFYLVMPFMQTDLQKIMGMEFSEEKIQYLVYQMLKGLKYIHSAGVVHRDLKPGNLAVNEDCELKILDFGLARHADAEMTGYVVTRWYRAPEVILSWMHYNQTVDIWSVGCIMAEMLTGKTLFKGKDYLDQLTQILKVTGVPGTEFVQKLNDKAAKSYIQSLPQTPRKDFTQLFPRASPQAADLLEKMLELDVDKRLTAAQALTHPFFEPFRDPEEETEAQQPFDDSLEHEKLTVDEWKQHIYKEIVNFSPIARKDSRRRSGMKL

[4] = target: Serine/threonine-protein kinase MRCK beta (Homo sapiens) (UniProt Q9Y5S2); test: Inhibition of MRCKB (unknown origin) assessed as residual activity at 1000 nM by KINOMEscan analysis relative to control
Serine/threonine-protein kinase MRCK beta (Homo sapiens), sequence (Q9Y5S2 whole entry): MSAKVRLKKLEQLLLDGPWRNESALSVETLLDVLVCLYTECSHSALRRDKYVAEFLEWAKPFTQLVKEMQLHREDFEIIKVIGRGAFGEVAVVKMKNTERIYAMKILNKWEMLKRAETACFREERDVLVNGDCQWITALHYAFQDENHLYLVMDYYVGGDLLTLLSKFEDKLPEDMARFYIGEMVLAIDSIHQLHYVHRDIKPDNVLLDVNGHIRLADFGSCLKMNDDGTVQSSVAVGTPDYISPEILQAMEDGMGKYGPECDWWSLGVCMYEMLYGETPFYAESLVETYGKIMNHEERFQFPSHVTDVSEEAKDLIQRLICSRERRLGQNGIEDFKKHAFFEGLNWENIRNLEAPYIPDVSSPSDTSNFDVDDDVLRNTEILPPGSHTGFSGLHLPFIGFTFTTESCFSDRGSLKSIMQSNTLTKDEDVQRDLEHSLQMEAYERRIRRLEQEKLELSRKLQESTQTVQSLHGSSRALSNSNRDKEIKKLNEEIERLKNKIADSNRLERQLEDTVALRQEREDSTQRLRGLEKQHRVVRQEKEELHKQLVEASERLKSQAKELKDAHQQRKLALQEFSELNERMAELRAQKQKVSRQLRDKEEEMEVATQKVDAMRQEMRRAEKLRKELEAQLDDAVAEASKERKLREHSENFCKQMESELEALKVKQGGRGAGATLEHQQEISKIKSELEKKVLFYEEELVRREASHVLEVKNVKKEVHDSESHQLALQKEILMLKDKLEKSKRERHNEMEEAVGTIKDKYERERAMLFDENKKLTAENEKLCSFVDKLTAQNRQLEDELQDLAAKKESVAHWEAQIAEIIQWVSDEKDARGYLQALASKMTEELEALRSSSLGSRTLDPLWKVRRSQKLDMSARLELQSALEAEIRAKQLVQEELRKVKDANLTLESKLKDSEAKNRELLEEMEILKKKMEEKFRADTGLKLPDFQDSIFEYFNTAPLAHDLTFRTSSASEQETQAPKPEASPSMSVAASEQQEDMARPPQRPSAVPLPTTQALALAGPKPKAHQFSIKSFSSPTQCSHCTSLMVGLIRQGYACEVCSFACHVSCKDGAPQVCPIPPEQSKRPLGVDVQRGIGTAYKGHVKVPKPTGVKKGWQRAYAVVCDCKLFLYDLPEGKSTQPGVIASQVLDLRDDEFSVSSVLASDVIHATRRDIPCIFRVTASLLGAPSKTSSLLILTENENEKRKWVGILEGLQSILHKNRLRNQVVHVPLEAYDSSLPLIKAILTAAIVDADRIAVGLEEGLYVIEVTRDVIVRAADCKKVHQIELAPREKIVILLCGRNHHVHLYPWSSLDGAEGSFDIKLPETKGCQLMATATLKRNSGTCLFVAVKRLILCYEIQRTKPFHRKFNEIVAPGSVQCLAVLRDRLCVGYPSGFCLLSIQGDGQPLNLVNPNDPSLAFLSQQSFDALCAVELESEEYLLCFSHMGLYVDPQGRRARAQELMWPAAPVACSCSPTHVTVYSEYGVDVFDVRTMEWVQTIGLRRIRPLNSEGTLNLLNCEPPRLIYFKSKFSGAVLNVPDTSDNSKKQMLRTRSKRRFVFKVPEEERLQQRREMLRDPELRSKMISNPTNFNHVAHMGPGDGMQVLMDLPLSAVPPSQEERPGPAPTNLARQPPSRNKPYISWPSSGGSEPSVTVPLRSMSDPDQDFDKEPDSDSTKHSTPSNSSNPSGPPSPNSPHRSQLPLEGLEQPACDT

[5] = target: Serine/threonine-protein kinase MRCK gamma (Homo sapiens) (UniProt Q6DT37); test: Inhibition of DMPK2 (unknown origin) assessed as residual activity at 1000 nM by KINOMEscan analysis relative to control
Serine/threonine-protein kinase MRCK gamma (Homo sapiens), sequence (Q6DT37 whole entry): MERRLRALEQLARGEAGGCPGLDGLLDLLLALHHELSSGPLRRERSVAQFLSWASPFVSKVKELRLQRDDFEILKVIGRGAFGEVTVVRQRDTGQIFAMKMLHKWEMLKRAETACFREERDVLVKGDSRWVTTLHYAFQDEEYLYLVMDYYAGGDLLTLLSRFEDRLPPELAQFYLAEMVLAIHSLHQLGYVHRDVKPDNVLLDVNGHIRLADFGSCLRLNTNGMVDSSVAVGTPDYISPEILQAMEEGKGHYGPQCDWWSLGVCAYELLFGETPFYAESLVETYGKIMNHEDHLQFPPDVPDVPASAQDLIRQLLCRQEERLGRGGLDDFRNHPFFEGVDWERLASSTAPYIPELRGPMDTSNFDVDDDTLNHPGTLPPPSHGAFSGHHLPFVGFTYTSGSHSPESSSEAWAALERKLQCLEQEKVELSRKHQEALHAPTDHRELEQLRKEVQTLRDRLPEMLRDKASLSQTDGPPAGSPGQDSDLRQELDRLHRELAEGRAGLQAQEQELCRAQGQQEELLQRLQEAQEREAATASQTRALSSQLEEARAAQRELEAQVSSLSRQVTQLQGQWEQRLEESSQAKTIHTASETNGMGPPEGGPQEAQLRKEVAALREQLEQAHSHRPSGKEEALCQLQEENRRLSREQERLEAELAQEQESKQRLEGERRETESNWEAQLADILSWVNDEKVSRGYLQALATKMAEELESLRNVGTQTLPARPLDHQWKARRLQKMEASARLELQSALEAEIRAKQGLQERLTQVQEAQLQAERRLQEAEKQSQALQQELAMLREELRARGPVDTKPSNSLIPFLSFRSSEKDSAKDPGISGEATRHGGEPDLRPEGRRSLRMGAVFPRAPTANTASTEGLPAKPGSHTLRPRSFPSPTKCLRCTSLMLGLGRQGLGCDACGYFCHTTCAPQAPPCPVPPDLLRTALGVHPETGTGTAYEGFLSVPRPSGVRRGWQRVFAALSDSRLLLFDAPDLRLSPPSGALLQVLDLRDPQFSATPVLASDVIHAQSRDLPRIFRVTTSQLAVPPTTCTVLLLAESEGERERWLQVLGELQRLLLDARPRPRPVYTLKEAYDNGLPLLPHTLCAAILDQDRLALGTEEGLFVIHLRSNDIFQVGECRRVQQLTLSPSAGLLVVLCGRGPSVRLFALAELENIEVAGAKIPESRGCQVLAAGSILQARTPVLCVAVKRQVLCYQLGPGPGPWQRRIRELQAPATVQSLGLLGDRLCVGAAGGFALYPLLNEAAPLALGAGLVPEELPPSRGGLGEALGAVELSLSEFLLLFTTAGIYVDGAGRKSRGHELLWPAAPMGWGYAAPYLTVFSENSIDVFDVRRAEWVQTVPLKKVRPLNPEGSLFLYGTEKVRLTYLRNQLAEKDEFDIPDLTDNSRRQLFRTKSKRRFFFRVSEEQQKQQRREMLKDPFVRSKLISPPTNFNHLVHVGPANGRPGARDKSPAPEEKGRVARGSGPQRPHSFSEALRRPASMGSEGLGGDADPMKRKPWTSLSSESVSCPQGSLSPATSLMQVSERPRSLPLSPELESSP

[6] = target: T2, Serine/threonine-protein kinase 17B (Homo sapiens) (UniProt O94768); test: Inhibition of DRAK2 (unknown origin) assessed as residual activity at 1000 nM by KINOMEscan analysis relative to control
T2 sequence (whole entry): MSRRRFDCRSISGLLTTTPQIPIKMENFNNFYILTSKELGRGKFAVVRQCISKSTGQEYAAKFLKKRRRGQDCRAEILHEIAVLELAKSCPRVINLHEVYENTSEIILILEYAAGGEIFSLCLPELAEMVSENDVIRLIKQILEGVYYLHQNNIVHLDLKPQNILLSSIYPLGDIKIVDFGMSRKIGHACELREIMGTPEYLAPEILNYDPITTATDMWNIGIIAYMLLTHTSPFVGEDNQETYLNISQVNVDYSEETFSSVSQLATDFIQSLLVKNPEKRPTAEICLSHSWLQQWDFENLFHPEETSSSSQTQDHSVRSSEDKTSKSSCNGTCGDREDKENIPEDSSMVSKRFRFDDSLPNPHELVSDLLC

[7] = target: T3, Myosin-IIIb (Homo sapiens) (UniProt Q8WXR4); test: Inhibition of MYO3B (unknown origin) assessed as residual activity at 1000 nM by KINOMEscan analysis relative to control
T3 sequence (whole entry): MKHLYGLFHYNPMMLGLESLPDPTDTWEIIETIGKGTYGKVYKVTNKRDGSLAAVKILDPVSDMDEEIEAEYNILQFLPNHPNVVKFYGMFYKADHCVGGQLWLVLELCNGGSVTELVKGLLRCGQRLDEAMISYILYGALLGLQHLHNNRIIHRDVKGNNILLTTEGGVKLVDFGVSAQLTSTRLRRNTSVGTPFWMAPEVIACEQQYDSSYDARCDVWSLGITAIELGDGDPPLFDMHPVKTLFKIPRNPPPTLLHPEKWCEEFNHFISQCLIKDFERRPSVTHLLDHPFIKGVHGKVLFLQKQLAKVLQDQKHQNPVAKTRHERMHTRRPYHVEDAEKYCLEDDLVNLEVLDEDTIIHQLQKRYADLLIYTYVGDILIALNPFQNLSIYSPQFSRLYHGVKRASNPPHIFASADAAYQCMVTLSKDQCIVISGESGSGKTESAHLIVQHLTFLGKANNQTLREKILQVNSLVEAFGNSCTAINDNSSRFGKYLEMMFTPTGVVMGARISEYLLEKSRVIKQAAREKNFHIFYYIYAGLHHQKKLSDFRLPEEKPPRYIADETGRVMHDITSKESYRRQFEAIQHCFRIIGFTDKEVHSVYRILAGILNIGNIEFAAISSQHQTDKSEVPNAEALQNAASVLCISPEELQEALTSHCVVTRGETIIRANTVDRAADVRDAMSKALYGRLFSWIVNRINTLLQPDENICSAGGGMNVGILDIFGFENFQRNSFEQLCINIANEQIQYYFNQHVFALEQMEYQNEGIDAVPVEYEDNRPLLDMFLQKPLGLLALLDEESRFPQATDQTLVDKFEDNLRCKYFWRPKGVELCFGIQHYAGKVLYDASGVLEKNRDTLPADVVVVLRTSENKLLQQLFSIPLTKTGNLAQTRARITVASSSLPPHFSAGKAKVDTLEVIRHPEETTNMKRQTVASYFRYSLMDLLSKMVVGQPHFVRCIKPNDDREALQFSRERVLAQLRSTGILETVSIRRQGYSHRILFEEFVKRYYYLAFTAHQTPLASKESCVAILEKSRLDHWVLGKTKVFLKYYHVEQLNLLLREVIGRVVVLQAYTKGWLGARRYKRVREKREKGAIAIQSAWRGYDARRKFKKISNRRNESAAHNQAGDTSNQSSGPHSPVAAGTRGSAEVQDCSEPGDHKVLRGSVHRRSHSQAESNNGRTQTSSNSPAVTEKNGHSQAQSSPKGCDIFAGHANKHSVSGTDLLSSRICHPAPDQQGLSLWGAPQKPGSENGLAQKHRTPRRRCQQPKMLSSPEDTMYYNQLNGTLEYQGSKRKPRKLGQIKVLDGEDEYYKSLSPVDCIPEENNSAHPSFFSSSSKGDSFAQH

High affinity nerve growth factor receptor (Homo sapiens), sequence (P04629 33-796 limits assumed): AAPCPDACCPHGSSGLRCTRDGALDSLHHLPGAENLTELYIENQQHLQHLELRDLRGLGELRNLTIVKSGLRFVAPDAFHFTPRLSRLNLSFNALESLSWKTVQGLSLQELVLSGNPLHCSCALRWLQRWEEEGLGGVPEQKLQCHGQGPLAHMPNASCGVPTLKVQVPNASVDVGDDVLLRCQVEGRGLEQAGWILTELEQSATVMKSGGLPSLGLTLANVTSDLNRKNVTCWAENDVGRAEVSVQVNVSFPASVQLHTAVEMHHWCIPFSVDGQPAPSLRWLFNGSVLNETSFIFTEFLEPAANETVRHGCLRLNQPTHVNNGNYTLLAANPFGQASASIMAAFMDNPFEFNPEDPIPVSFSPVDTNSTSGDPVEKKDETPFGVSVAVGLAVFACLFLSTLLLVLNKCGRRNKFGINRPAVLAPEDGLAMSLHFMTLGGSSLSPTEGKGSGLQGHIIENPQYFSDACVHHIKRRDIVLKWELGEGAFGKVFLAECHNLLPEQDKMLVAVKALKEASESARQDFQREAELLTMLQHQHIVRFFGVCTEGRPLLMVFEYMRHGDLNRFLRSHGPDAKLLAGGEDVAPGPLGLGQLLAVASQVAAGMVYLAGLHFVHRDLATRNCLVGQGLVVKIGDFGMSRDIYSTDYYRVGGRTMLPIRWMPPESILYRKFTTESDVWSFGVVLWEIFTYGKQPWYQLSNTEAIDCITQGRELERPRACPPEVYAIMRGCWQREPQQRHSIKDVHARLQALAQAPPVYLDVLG

SMILES	Activity [1] [%]	Activity [2] [%]	Activity [3] [%]	Activity [4] [%]	Activity [5] [%]	Activity [6] [%]	Activity [7] [%]
COc1cc2nc(C)nc(N[C@H](C)c3cccc(-c4cn[nH]c4)c3)c2cc1OC	99	99	90	56	100	67	89
COc1cc2ncnc(N[C@H](C)c3cccc4ccccc34)c2cc1OC	97	97	100	100	93	100	88
